Experimental data: US20250145589A1, “PYRIDINE DERIVATIVE AND USE THEREOF” (SICHUAN HUIYU PHARMACEUTICAL CO., LTD., priority 2021, published 2025)
Read-outs that look alike come from different tables or passages of the source.

How the values were obtained:
[1] = system: MIA PaCa-2 cells (KRAS G12C mutant); test: MIA PaCa-2 cell anti-proliferation (CellTiter-Glo); format: cell-based; settings: Homo sapiens, 72 h; MIA Paca-2 cells, 3 days, Table 7; read-out: MIA PaCa-2 (IC50)
Protocol: The number of viable cells was determined using the CellTiter-Glo® assay to evaluate the anti-proliferation efficacy of compounds. […] The compounds were serially diluted 4-fold in DMSO to obtain 9 concentrations, and then further diluted with DMEM (10% FBS+2.5% horse serum+1% penicillin/streptomycin) cell culture medium to obtain the working solutions (2×), 15 μL of each working solution was added to the cell culture supernatant in each well, and the cells were further incubated for 3 days at 37° C. with 5% CO2. The plate was then equilibrated with CellTiter-Glo® reagent at room temperature (25° C.) for 30 minutes. After adding 25 μL of CellTiter-Glo®, reagent, the cells were thoroughly mixed with the CellTiter-Glo® reagent using a microplate shaker for 2 minutes, and then incubated at room temperature for at least 30 minutes. […] Data were analyzed using GraphPad Prism for IC50 values (Note: The negative control refers to the group without inhibitor).

PI3Kα = PI3Kα (Homo sapiens (Human), UniProt P42336); test: Inhibition of PI3Kα efficacy assay (ADP-Glo kinase assay); format: biochemical; settings: read-out: PI3Kα inhibitory activity (IC50)
Sequence of PI3Kα (P42336 whole entry): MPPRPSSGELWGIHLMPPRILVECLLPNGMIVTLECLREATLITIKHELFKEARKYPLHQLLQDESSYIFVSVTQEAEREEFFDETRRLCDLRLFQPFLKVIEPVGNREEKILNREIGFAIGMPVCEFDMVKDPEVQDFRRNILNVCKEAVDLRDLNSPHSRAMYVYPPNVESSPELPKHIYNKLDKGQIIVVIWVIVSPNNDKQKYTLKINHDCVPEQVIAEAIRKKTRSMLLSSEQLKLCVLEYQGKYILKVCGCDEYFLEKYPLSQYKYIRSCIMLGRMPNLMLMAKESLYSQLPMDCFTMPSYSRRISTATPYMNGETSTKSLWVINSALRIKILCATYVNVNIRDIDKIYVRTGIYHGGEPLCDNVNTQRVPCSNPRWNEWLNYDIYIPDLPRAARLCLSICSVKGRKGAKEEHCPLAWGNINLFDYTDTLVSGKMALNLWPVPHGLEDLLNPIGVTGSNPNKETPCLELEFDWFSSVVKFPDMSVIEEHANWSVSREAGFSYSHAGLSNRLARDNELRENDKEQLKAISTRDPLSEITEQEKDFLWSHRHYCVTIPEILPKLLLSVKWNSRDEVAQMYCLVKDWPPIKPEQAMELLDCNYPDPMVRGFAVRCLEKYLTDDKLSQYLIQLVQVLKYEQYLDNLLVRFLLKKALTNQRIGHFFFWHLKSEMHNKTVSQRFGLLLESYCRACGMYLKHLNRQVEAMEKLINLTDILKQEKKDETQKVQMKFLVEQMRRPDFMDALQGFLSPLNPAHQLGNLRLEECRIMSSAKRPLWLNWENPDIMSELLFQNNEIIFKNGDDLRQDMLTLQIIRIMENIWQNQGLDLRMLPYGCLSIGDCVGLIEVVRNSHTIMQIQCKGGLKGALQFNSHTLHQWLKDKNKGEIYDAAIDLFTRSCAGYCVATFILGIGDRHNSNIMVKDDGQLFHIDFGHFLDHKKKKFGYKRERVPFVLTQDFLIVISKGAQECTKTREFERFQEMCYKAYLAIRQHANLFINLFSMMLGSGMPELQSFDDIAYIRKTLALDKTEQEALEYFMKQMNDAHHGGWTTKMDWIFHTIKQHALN
Sequence of PI3Kα (P27986 whole entry partner): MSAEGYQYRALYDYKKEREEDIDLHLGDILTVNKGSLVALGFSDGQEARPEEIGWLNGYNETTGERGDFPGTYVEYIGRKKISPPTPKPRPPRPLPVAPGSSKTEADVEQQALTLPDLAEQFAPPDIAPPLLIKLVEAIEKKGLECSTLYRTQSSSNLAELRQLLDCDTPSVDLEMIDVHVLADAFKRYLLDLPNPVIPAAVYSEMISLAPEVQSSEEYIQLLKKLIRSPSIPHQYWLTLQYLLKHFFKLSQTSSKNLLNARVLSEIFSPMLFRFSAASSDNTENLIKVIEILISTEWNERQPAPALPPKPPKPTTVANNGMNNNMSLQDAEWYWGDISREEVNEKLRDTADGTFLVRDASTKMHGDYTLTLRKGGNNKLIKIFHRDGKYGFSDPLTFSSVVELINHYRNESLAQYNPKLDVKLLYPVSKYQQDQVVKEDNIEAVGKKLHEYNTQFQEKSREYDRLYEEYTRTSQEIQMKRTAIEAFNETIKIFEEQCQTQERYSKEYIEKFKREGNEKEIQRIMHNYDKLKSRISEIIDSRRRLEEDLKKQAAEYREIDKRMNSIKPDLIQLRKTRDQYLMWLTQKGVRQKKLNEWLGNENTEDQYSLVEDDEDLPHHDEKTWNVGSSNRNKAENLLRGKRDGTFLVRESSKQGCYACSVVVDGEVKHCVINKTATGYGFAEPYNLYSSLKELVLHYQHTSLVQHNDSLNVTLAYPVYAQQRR
Summary of the method: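 ADP-Glo luminescent detection of ADP from PI3Kα acting on PI substrate with ATP, 60 min at RT; compounds in 8-point five-fold serial dilution from 2 mM DMSO stock. IC50 from four-parameter variable-slope fit.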

PI3Kδ = PI3Kδ (Homo sapiens (Human), UniProt O00329); test: Inhibition of PI3Kδ efficacy assay (ADP-Glo kinase assay); format: biochemical; settings: read-out: PI3Kδ inhibitory activity (IC50)
Sequence of PI3Kδ (O00329 whole entry): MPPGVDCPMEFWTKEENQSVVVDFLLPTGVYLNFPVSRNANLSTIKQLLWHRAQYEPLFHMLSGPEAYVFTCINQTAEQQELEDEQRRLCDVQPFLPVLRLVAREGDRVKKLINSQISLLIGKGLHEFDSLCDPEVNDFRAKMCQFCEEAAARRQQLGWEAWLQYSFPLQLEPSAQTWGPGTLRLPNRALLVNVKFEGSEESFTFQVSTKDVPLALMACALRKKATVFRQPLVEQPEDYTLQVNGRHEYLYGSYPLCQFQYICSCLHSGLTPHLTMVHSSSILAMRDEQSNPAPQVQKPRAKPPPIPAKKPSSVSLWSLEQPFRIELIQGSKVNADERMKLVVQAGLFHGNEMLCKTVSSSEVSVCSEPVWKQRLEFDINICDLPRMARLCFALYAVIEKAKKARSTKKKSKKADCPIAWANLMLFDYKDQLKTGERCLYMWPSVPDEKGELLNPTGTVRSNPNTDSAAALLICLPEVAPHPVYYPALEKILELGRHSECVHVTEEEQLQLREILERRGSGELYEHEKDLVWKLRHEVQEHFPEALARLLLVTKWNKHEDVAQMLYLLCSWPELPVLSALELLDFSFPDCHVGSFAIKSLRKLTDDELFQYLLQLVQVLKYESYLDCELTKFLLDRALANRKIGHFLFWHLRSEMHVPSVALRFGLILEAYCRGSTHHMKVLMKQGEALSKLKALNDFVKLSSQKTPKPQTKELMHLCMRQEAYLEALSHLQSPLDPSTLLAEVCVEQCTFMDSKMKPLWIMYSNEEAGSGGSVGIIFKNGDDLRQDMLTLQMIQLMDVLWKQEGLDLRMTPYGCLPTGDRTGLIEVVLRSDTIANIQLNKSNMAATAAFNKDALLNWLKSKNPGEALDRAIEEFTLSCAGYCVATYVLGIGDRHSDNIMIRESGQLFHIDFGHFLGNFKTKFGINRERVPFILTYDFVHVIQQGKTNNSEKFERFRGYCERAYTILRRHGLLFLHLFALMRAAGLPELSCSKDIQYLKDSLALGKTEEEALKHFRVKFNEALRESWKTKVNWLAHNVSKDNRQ
Sequence of PI3Kδ (P27986 whole entry partner): as the sequence (P27986 whole entry partner) above
Summary of the method: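 Luminescent ADP-Glo readout of PI3Kδ: after a 60 min RT reaction with PI/ATP substrate, ATP depletion (40 min) and ADP detection (40 min) steps followed. Compounds tested as eight five-fold serial dilutions; inhibition rates fitted to log(inhibitor) vs. response, variable slope, for IC50.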

[2] = system: NCI-H358 cells (KRAS G12C mutant); test: NCI-H358 cell proliferation inhibition (CellTiter-Glo); format: cell-based; settings: Homo sapiens, NCI-H358, 72 h; H358 cells (G12C mutation), 3 days, Table 6; read-out: NCI-H358 (IC50)

SMILES | IC50 [1] [nM] | IC50 (PI3Kα; Table 2) [nM] | IC50 (PI3Kδ; Table 2) [nM] | IC50 [2] [nM] | IC50 (PI3Kα; Table 1) [nM] | IC50 (PI3Kδ; Table 1) [nM]
COc1ncc(-c2ccc3ncnc(N4CC5CCC(C4)N5C(=O)/C=C/C(C)=O)c3n2)cc1NS(=O)(=O)c1c(F)cccc1F [Example 137, 2,6-difluoro-N-(2-methoxy-5-(4-(8-((E)-4-oxopent-2-enoyl)-3,8-diazabicyclo[3.2.1]octan-3-yl)pyrido[3,2-d]pyrimidin-6-yl)pyridin-3-yl)benzenesulfonamide] | 6.8 |  |  |  |  | 
COc1ncc(-c2ccc3ncnc(N4CCN(C(=O)/C=C/CF)CC4)c3c2)cc1NS(=O)(=O)c1ccc(F)cc1F [Example 16, (E)-2,4-difluoro-N-(5-(4-(4-(4-fluorobut-2-enoyl)piperazin-1-yl)quinazolin-6-yl)-2-methoxypyridin-3-yl)benzenesulfonamide] |  |  |  | 35.2 | 0.26 | 28.5
C=CC(=O)N1CC2(CCN(c3ncnc4ccc(-c5cnc(OC)c(NS(=O)(=O)c6ccc(F)cc6F)c5)cc34)CC2)C1 [Example 18, N-(5-(4-(2-acryloyl-2,7-diazaspiro[3.5]nonan-7-yl)quinazolin-6-yl)-2-methoxypyridin-3-yl)-2,4-difluorobenzenesulfonamide] |  |  |  | 60.1 | 1.2 | 12.5
C=C(F)C(=O)N1C[C@H](C)N(c2ncnc3ccc(-c4cnc(OC)c(NS(=O)(=O)c5ccc(F)cc5F)c4)cc23)C[C@H]1C [Example 68, 2,4-difluoro-N-(5-(4-((2S,5R)-4-(2-fluoroacryloyl)-2,5-dimethyl-piperazin-1-yl)quinazolin-6-yl)-2-methoxy-pyridin-3-yl) benzene-sulfonamide] |  | 1.4 | 27.7 | 861 |  | 
COc1ncc(-c2ccc3ncnc(N4CCN(C(=O)/C=C/c5ncco5)CC4)c3c2)cc1NS(=O)(=O)c1ccc(F)cc1F [Example 62, (E)-2,4-difluoro-N-(2-methoxy-5-(4-(4-(3-(oxazol-2-yl)acryloyl)piperazin-1-yl)quinazolin-6-yl)pyridin-3-yl) benzene-sulfonamide] |  | 11.8 | 12.5 | 15.1 |  | 
COC/C=C/C(=O)N1CCN(c2ncnc3ccc(-c4cnc(OC)c(NS(=O)(=O)c5ccc(F)cc5F)c4)cc23)CC1 [Example 64, (E)-2,4-difluoro-N-(2-methoxy-5-(4-(4-(4-methoxybut-2-enoyl)piperazin-1-yl)quinazolin-6-yl)pyridin-3-yl) benzene-sulfonamide] |  | 16.7 | 14.6 | 12.6 |  | 
COc1ncc(-c2ccc3ncnc(N4CCN(C(=O)/C=C/P(C)(C)=O)CC4)c3c2)cc1NS(=O)(=O)c1ccc(F)cc1F [Example 76, (E)-N-(5-(4-(4-(3-(dimethylphosphoryl)acryloyl)piperazin-1-yl)quinazolin-6-yl)-2-methoxypyridin-3-yl)-2,4-difluorobenzenesulfonamide] |  | 7.5 | 25.3 | 3420 |  | 
COc1ncc(-c2ccc3ncnc(N4CCN(C(=O)/C=C/S(C)(=O)=O)CC4)c3c2)cc1NS(=O)(=O)c1ccc(F)cc1F [Example 75, (E)-2,4-difluoro-N-(2-methoxy-5-(4-(4-(3-(methylsulfonyl)acryloyl)piperazin-1-yl)quinazolin-6-yl)pyridin-3-yl)benzenesulfonamide] |  | 0.78 | 31.2 | 285 |  | 
C=C(OC)C(=O)N1CCN(c2ncnc3ccc(-c4cnc(OC)c(NS(=O)(=O)c5ccc(F)cc5F)c4)cc23)CC1 [Example 66, 2,4-difluoro-N-(2-methoxy-5-(4-(4-(2-methoxy-acryloyl)piperazin-1-yl)quinazolin-6-yl)pyridin-3-yl) benzene-sulfonamide] |  | 13.8 | 14.8 | 13.5 |  | 
CC(=O)/C=C/C(=O)N1CCN(c2ncnc3ccc(-c4cnc(OC5CCCC5)c(NS(=O)(=O)c5ccc(F)cc5F)c4)cc23)CC1 [Example 107, (E)-N-(2-(cyclopentyloxy)-5-(4-(4-(4-oxopent-2-enoyl)piperazin-1-yl)quinazolin-6-yl)pyridin-3-yl)-2,4-difluorobenzenesulfonamide] |  | 126 | 794 | 405 |  | 
C=CC(=O)N1CCN(c2ncnc3ccc(-c4cnc(OC)c(NS(=O)(=O)c5c(F)cccc5F)c4)cc23)CC1 [Example 21, N-(5-(4-(4-acryloylpiperazin-1-yl)quinazolin-6-yl)-2-methoxypyridin-3-yl)-2,6-difluorobenzenesulfonamide] |  |  |  | 27 | 5.8 | 58.2
C=CC(=O)N1CC2(CCN(c3ncnc4ccc(-c5cnc(OC)c(NS(=O)(=O)c6c(F)cccc6F)c5)cc34)CC2)C1 [Example 50, N-(5-(4-(2-acryloyl-2,7-diazaspiro[3.5]nonan-7-yl)quinazolin-6-yl)-2-methoxypyridin-3-yl)-2,6-difluorobenzene-sulfonamide] |  | 0.61 | 11.4 | 31.1 |  | 
CC(=O)/C=C/C(=O)N1CCN(c2ncnc3ccc(-c4cnc(Cl)c(NS(=O)(=O)c5ccc(Cl)s5)c4)cc23)CC1 [Example 36, (E)-5-chloro-N-(2-chloro-5-(4-(4-(4-oxopent-2-enoyl)piperazin-1-yl)quinazolin-6-yl)pyridin-3-yl)thiophene-2-sulfonamide] |  |  |  | 278 | 21.5 | 140
CCc1ncc(-c2ccc3ncnc(N4CCN(C(=O)/C=C/C(C)=O)CC4)c3c2)cc1NS(=O)(=O)c1ccc(F)cc1F [Example 83, (E)-N-(2-ethyl-5-(4-(4-(4-oxopent-2-enoyl)piperazin-1-yl)quinazolin-6-yl)pyridin-3-yl)-2,4-difluorobenzenesulfonamide] |  | 6.2 | 17.6 | 459 |  | 
COc1ncc(-c2ccc3ncnc(N4CCN(C(=O)C5=CC(=O)CCC5)CC4)c3c2)cc1NS(=O)(=O)c1ccc(Cl)s1 [Example 73, 5-chloro-N-(2-methoxy-5-(4-(4-(3-oxocyclohexane-1-en-1-carbonyl)piperazin-1-yl)quinazoline-6-yl)pyridin-3-yl)thiophene-2-sulfonamide] |  | 2.5 | 16.5 | 34.3 |  | 

Continued, values first:

IC50 [1] [nM] | IC50 (PI3Kα; Table 2) [nM] | IC50 (PI3Kδ; Table 2) [nM] | IC50 [2] [nM] | IC50 (PI3Kα; Table 1) [nM] | IC50 (PI3Kδ; Table 1) [nM] | SMILES
19.6 |  |  |  |  |  | COc1ncc(-c2ccc3ncnc(N4CCN(C(=O)/C=C/C(C)=O)CC4)c3n2)cc1NS(=O)(=O)c1ccc(F)cc1 [Example 134, (E)-4-fluoro-N-(2-methoxy-5-(4-(4-(4-oxopent-2-enoyl)piperazin-1-yl)pyrido[3,2-d]pyrimidin-6-yl)pyridin-3-yl)benzenesulfonamide]
6.6 |  |  |  |  |  | COc1ncc(-c2ccc3ncnc(N4CCC5(CC4)CN(C(=O)/C=C/C(C)=O)C5)c3n2)cc1NS(=O)(=O)c1c(F)cccc1F [Example 136, (E)-2,6-difluoro-N-(2-methoxy-5-(4-(2-(4-oxopent-2-enoyl)-2,7-diazaspiro[3.5]nonan-7-yl)pyrido[3,2-d]pyrimidin-6-yl)pyridin-3-yl)benzenesulfonamide]
10.5 |  |  |  |  |  | COc1ncc(-c2ccc3ncnc(N4CCN(C(=O)/C=C/C(C)=O)C[C@@H]4C)c3n2)cc1NS(=O)(=O)c1c(F)cccc1F [Example 138, (S,E)-2,6-difluoro-N-(2-methoxy-5-(4-(2-methyl-4-(4-oxopent-2-enoyl)piperazin-1-yl)pyrido[3,2-d]pyrimidin-6-yl)pyridin-3-yl)benzenesulfonamide]
 | 2.8 | 11.8 | 67.9 |  |  | C=CC(=O)N1CCN(c2ncnc3ccc(-c4cnc(OC)c(NS(=O)(=O)c5ccc(F)cn5)c4)cc23)CC1 [Example 119, N-(5-(4-(4-acryloylpiperazin-1-yl)quinazolin-6-yl)-2-methoxypyridin-3-yl)-5-fluoropyridine-2-sulfonamide]
9.1 |  |  |  |  |  | COc1ncc(-c2ccc3ncnc(N4CCN(C(=O)/C=C/C(C)=O)CC4)c3n2)cc1NS(=O)(=O)c1ccc(F)cc1Cl [Example 135, (E)-2-chloro-4-fluoro-N-(2-methoxy-5-(4-(4-(4-oxopent-2-enoyl)piperazin-1-yl)pyrido[3,2-d]pyrimidin-6-yl)pyridin-3-yl)benzenesulfonamide]
 | 3 | 11.5 | 94.9 |  |  | C=C(F)C(=O)N1CCN(c2ncnc3ccc(-c4cnc(OC)c(NS(=O)(=O)c5ccc(F)cn5)c4)cc23)CC1 [Example 120, 5-fluoro-N-(5-(4-(4-(2-fluoroacryloyl)piperazin-1-yl)quinazolin-6-yl)-2-methoxypyridin-3-yl)pyridine-2-sulfonamide]
 | 5 | 23.9 | 72.2 |  |  | COc1ncc(-c2ccc3ncnc(N4CCN(C(=O)/C=C/C(C)=O)[C@@H](CC#N)C4)c3c2)cc1NS(=O)(=O)c1ccc(F)cc1F [Example 112, (S,E)-N-(5-(4-(3-(cyanomethyl)-4-(4-oxopent-2-enoyl)piperazin-1-yl)quinazolin-6-yl)-2-methoxypyridin-3-yl)-2,4-difluorobenzenesulfonamide]
